Laboratory results taken from PMC11956017, “Design of Benzyl-triazolopyrimidine-Based NADPH Oxidase Inhibitors Leads to the Discovery of a Potent Dual Covalent NOX2/MAOB Inhibitor” (Journal of Medicinal Chemistry, 2025).
“Also recorded” adds a separate entry of the source.

How the values were obtained:
[1] = tested on: dehydrogenase domain of csNOX5; experiment: NADPH depletion assay on csNOX5 dehydrogenase domain; type: biochemical, Cylindrospermum stagnale; settings: 10 μM inhibitor; 1 μM purified protein, 250 μM NADPH
Experimental: A series of derivatives were synthesized and tested at 10 μM against the dehydrogenase domain of NOX5 from Cylindrospermum stagnale (C. stagnale, CsNOX5; Figure 2B).
The NADPH depletion assay for IC50 determinations was performed as described[10] with modifications for covalent inhibitors, which require longer incubation times. Briefly, the catalytic activity was measured by monitoring the absorbance at 340 nm with a Cary 100 UV–vis spectrophotometer (Varian). A 1 μM portion of purified protein was added in a final volume of 130 μL of 50 mM HEPES pH 7.5 and supplemented with 300 μM FAD. Inhibitors were added at varying concentrations and incubated for 1 h at 25 °C.

human NOX4 = molecular target: T1, human NOX4 (Homo sapiens, UniProt Q9NPH5); experiment: Human NOX4 isolated membranes, Amplex Red/horseradish peroxidase coupled assay; type: biochemical; settings: membrane-embedded; 40 μM NADPH; read-out: IC50 on human NOXs, NOX4 (AMPLEX RED)
T1 construct: expressed in transfected cells; host or cells: HEK293 F cells, transient transfection (pTT22 and pYD7 vectors); isolated membranes
T1 sequence (Q9NPH5 1-578): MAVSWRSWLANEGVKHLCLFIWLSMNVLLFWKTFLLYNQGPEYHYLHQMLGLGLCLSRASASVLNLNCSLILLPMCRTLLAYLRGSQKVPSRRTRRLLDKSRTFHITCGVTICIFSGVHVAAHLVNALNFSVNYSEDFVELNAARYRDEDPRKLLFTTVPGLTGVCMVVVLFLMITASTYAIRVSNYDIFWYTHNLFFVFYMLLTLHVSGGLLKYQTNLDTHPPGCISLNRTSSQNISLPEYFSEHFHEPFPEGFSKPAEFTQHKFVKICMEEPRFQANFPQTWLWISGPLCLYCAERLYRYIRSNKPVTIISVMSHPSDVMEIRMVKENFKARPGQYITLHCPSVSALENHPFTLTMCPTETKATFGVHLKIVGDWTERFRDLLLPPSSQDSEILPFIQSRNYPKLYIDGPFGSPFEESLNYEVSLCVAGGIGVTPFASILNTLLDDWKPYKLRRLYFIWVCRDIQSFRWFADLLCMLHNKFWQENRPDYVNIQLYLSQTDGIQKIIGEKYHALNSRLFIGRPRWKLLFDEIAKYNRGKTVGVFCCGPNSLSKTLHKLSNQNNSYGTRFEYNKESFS
T1 sequence (P13498 1-195 partner): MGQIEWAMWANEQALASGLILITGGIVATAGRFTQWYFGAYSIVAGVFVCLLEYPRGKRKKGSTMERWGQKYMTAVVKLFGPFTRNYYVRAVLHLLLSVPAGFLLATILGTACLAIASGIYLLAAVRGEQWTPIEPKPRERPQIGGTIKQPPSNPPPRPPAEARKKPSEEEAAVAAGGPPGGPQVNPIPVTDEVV
Experimental: Activity assays for IC50 determinations were performed as previously described[40],[42] with modifications for covalent inhibitors. […] The estimated final protein concentrations based on the heme’s absorbance (ε414 nm = 131,000 M^–1 cm^–1) were 10–20 nM. Compounds were incubated for 1 h at 25 °C at varying concentrations, and reactions were initiated with 40 μM NADPH. Fluorescence was measured using a ClarioStar plate reader (excitation 572 nm/emission 583 nm).

human MAOB = molecular target: T2, human MAOB (Homo sapiens, UniProt P27338); experiment: Purified MAOB, Amplex Red/horseradish peroxidase coupled assay; type: biochemical; settings: for IC50 Purified MAOB / IC50: 10 nM MAOB, 1 mM benzylamine
T2 construct: made in house; host or cells: Pichia pastoris
T2 sequence (P27338 1-520): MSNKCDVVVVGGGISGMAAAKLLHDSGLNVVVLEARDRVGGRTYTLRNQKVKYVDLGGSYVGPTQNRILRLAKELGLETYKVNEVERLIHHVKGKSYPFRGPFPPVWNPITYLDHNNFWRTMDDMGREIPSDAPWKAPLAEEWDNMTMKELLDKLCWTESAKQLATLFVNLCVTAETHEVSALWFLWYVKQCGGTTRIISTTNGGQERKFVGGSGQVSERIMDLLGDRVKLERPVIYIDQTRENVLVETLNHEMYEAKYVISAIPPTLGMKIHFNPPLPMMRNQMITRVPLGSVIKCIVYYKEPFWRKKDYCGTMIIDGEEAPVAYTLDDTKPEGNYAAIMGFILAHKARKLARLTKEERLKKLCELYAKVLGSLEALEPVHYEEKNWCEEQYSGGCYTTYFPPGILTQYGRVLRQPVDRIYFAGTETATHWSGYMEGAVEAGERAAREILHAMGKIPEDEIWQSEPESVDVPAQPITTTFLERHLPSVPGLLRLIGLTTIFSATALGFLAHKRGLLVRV
Experimental: IC50 values on human MAOA and human MAOB were determined using the Amplex Red/horseradish peroxidase coupled assay. […] Measurements were performed using a ClarioStar plate reader (excitation 572 nm and emission 583 nm) (BMG Labtech). IC50 values were obtained by fitting the percentage of inhibition versus log(inhibitor concentration) using GraphPad software 7.0. The covalent modification of the flavin upon the reaction with the propargylamine-containing inhibitors was monitored spectrophotometrically using a diode array UV/visible spectrophotometer (Agilent Technologies). […] The cofactor covalent modification was monitored over time following the shift of the enzyme-bound flavin (peaks at 370 and 456 nm) to 410 nm (ε410 = 23,500 M^–1 cm^–1) (Figure S10).

NOX2 = NOX2 (Homo sapiens, UniProt P04839); experiment: Human NOX2 isolated membranes, MCLA assay; type: biochemical; design: NOX2 was expressed as native protein in X-CGD PLB-985 cells transduced with the RD114 pseudotyped MFGS-NOX2 vector; expressed in transfected cells; host or cells: X-CGD PLB-985 cells transduced with MFGS-NOX2; isolated membranes; Cytosolic proteins made in E. coli; settings: for IC50: membrane-embedded, 240 μM NADPH, read-out: IC50 on human NOXs, NOX2 (MCLA)
Experimental: IC50 determinations were performed as described, with the same aforementioned modifications for covalent inhibition. Briefly, 20 μg of NOX2-p22^phox membranes was added to a reaction mix with a 65 mM sodium phosphate buffer (pH 7.0), 0.5 μM FAD, 130 μM LiDS, 160 nM p67^phox, p47^phox, Rac1 Q61L, and 1 μM MCLA or 200 μM bovine cytochrome c. The estimated final protein concentration based on the heme’s absorbance was 60 nM. Compounds were incubated for 1 h at 25 °C, at varying concentrations. The reaction started by adding 240 μM NADPH, and measurements were taken by using a GloMax plate reader (Promega; MCLA) or a Cary 100 UV–vis spectrophotometer (Varian; cytochrome c).

Row | SMILES | % INHIBITION csNOX5 DEHYDROGENASE DOMAIN [1] [%] | IC50 (human NOX4) [µM] | IC50 Purified MAOB (human MAOB) | IC50 (NOX2) [nM] | IC50 (human MAOB) [nM] | MAOB inhibition relative to rasagiline (weaker) (human MAOB) [fold] | potency against NOX2 relative to VAS2870 (more powerful) (NOX2; NOX2 membranes) [fold]
1 | C#CCNC(=O)c1ccc(Cn2nnc3c(Sc4nc5ccccc5o4)ncnc32)cc1 [Compound 8b, (4-((7-Benzo[d]oxazol-2-yl-thio)-3H-[1,2,3]triazole[4,5-d]pyrimidin-3-yl)methyl)-N-(prop-2-in-1-yl)benzamide] | 94.6 ± 1.0 | 57.9 ± 7 | Inhibition^b | 17300 ± 2600 |  |  | 
2 | CCCNC(=O)c1ccc(Cn2nnc3c(Sc4nc5ccccc5o4)ncnc32)cc1 [Compound 8a, (4-((7-Benzo[d]oxazol-2-yl-thio)-3H-[1,2,3]triazole[4,5-d]pyrimidin-3-yl)methyl)-N-(propyl)benzamide] | 95.6 ± 0.1 | 21.8 ± 1.1 | ineffective; also recorded: Not detected | 2800 ± 50 | > 100000 |  | 
3 | C#CCN(C)Cc1ccc(Cn2nnc3c(Sc4nc5ccccc5o4)ncnc32)cc1 [Compound 9a, N-(4-((7-(Benzo[d]oxazol-2-ylthio)-3H-[1,2,3]triazolo[4,5-d]pyrimidin-3-yl)methyl)benzyl)-N-methylprop-2-yn-1-amine] | 67.3 ± 4.6 | 42 ± 16 |  | 567 ± 200 | 182 ± 100 | 10 | 2
